Measurements from paper PMC8948797 (International Journal of Molecular Sciences, 2022).

System: hALN
Assay: cytoplasmic calcium measurements (Fluo-8) in hALN
Type: cell-based, human
Conditions: 50 mM KCl, 21–30-day-old hALN, Figure S2
Description: Figure 3 Characterization of the hALN. (A) 1 s-long depolarizing, and hyperpolarizing pulses injected into a hALN neuron. […] (E) Representative image of Fluo-8-loaded cells and region of interest for individual cells for intensity measurements (white line). […] Data are presented as fluorescence intensity in arbitrary units.
To test the effect of NPFFR2 on the cytoplasmic calcium dynamics, we measured intracellular calcium concentrations using hALNs loaded with Fluo-8. Typically, neurons display calcium oscillations with synchronized patterns, as cells become mature and capable of forming electrical connections with one another. We first recorded basal spontaneous activity in 21–30-day old hALNs and observed synchronized calcium oscillations in 30–70% of cells (Figure 3D–F).
In 8 ± 3% cells, we detected no change, and the remaining 13 ± 5% cells increased their oscillation rate (n = 12).
Cytosolic (Ca2+)i was measured using Ca^2+ indicator Fluo-8. […] Baseline signal was measured at 488 nm excitation and 510 nm emission using inCell analyzer 2000 for 5 min. […] After the background subtraction, calcium responses were processed and analyzed using ImageJ. Mean intensity over time was measured in ROIs including cytoplasmic soma area of individual cells and their traceable extensions. […] Data are presented as fluorescence intensity in arbitrary units. […]

**Q.** How did the “cytoplasmic calcium response to KCl” value turn out when `[Cl-].[K+]` [KCl] was run?
**A.** Its value is “induced a cytoplasmic calcium transient increase”.
